Assay results reported in article PMC9605072, “Guanidine Derivatives of Quinazoline-2,4(1H,3H)-Dione as NHE-1 Inhibitors and Anti-Inflammatory Agents” (Life, 2022).
“Also recorded” adds a separate entry of the source.

Tests used:
[1] = tested on: male ICR mice; experiment: Tail suspension test (antidepressant activity); assay type: in vivo; settings: mean ± SD, n = 6, vehicle 264.8 ± 11.6 s
Procedure: Antidepressant activity was determined on 36 male ICR mice weighing 22–25 g as described in [14] using the Panlab LE808 apparatus.
The tail suspension test was used to assess the antidepressant activity of the most-active NHE-1 inhibitors.

[2] = tested on: LPS-stimulated C57bl/6j peritoneal macrophages; experiment: LPS-induced nitric oxide synthesis in primary peritoneal macrophages (Griess); assay type: cell-based, mice; settings: Mus musculus, Peritoneal macrophage, LPS 100 ng/mL, 22 h incubation, n = 3; for IC50: read-out: NO Synthesis IC50 ± SE
Procedure: (§1) Primary C57bl/6j murine macrophages were elicited with intraperitoneal injection of 3% peptone solution as per the standard procedure. Stimulation of inflammatory response was performed with E. coli O127:B8 LPS (100 ng/mL final concentration).
(§2) Nitric oxide was determined in culture supernatants as a nitrite anion with a standard Griess reagent after 22 h of incubation with test compounds at a wavelength of 550 nm with a microplate reader Infinite M200 PRO (Tecan GmbH, Grodig, Austria). Concentrations of IL-6 and TNF- α in cell supernatants were quantified with commercial ELISA kits according to the manufacturer’s instructions (Cloud-clone Corp., Katy, TX, USA).
(§3) Given our primary focus on the development of agents against cytokine-mediated tissue damage, we evaluated the target compounds as inhibitors of pro-inflammatory macrophage activation. Primary peritoneal macrophages were isolated from C57bl/6j mice, pooled, and stimulated with E. coli LPS as TLR4 agonist. Pro-inflammatory activation was assessed as nitric oxide (NO) synthesis and interleukin-6 (IL-6) secretion. The cytotoxicity of the compounds was monitored in parallel using the lactate dehydrogenase assay.

[3] = tested on: C57bl/6j mice; experiment: LPS-induced acute lung injury model; assay type: in vivo; settings: for Motor activity, open field test: 2 and 22 h after LPS
Procedure: Prior to the experiment, C57BL/6J mice were randomized according to body weight and motor activity in an open field test. […] Animals of the control group were injected with an equal volume of the vehicle. Animals were anesthetized with isoflurane inhalation until the breathing rate decreased 1 h later. Mice were suspended by the front incisors on an inclined surgical table; the tongue was pulled out with narrow curved tweezers, and 1 mg/mL of E. coli O127:B8 LPS (Sigma-Aldrich, Israel) in 1 mL/kg sterile saline was injected into the back of the oropharynx to allow aspiration. Intact animals received an equal volume of sterile saline in a similar way.
The open field test was performed with the NPO “Open Science” (Russia) arena of 44 cm diameter and 32 cm wall height under 300 lux lighting as reported by us previously.
Mice were anesthetized with 500 mg/kg chloral hydrate (Sigma-Aldrich, Germany) intraperitoneally 24 h after LPS administration. Blood and bronchoalveolar lavage (BAL) sampling was performed as described in [13]. Leukocyte counts and the lung permeability index were determined as described by us previously.
Histological and immunohistological assessment of tissue sections was performed in a semi-quantitative way on paraffin sections after hematoxylin and eosin staining with a light microscope (Zeiss, Germany) with double-blinding. The degree of inflammation was determined as previously reported.
Lung injury was assessed 24 h later based on behavioral, biochemical, cytological, and morphological alterations.

[4] = target: T1, rabbit platelet NHE-1 (Oryctolagus cuniculus, UniProt P23791); experiment: NHE-1 inhibition assay (rabbit platelets, laser aggregometer); assay type: cell-based; settings: for inhibition at 0.01 µM: 10 nM, m ± SD, n = 6
T1 construct: endogenous in cells; host or cells: rabbit platelets
T1 sequence (P23791 whole entry): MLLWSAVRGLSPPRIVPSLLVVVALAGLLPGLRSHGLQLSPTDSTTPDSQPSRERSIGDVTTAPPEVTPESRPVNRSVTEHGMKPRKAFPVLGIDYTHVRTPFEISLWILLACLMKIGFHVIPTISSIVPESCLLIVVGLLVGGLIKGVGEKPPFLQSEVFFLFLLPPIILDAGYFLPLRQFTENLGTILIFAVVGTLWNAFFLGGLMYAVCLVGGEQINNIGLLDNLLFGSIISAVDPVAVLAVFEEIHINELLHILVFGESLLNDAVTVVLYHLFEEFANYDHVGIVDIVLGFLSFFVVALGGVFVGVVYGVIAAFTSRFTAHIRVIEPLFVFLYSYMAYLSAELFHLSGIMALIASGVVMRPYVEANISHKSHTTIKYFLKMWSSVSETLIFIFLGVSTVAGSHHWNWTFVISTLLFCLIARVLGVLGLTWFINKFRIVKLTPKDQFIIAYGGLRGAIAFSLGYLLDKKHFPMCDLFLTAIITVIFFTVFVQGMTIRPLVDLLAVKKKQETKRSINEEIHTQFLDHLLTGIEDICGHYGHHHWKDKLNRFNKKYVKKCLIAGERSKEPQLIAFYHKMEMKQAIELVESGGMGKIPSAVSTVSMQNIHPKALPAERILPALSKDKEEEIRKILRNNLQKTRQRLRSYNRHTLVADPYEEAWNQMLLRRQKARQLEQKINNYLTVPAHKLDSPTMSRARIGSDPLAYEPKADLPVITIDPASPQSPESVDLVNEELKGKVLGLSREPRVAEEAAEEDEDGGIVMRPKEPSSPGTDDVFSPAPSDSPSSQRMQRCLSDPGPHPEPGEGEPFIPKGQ
Procedure: Inhibition of rabbit platelet NHE-1 was determined according to the method of [8, 9] in our modification, which was reported by us previously using the laser aggregometer BIOLA-220 LA (Russia).
Target compounds were evaluated as inhibitors of rabbit platelet NHE-1 (Table 1). It was shown that the substitution of H^5 with bromine decreased the activity of compounds 3b and 4b, indicating possible steric limitations of the binding site.

[5] = Cytotoxicity, lactate dehydrogenase (LDH) assay; assay type: cell-based, mice; settings: C57bl/6j, mouse, primary peritoneal macrophages stimulated with E. coli LPS; LPS-stimulated macrophages; n = 3; read-out: LDH CC50 ± SE
Procedure: (§4) The activity of lactate dehydrogenase (LDH) in a cell culture medium was determined as reported by us previously with a microplate reader Infinite M200 PRO (Tecan, Austria).
as §3
(§5) In an attempt to identify safer alternatives to steroid anti-inflammatory agents, it is mandatory to evaluate lead compounds for immunodepressant activity. To do so, we determined the influence of compound 4a on macrophage phagocytosis after 72 h of incubation. Cell viability was monitored in parallel via the LDH assay.

[6] = tested on: C57bl/6j peritoneal macrophages; experiment: Cytotoxicity, lactate dehydrogenase (LDH) assay; assay type: cell-based, mice; settings: 72 h of incubation, in parallel to phagocytosis
Procedure: as §4, §3, §5

[7] = tested on: rat intraocular pressure; experiment: Intraocular pressure study (TonoVet); assay type: in vivo; settings: rats, 0.4% eye drops; for Max IOP Reduction: m ± SD, n = 5; for IOP-lowering activity reduction relative to 4a: vs 4a
Procedure: Intraocular pressure was measured on 75 adult outbred rats of both sexes with a TonoVet device (Finland) as reported by us previously.
To access the influence on rat eye aqueous humor formation, the studied compounds were administered as 0.4% eye drops. […] Introduction of 5-bromine (4b) or acyclic guanidine N^1 , N^3 -side chains (3a) led to 2- and 3-fold activity reduction, respectively.

[8] = tested on: rabbit platelets; experiment: ADP-induced platelet aggregation assay; assay type: cell-based; settings: Oryctolagus cuniculus, m ± SD, n = 5
Procedure: Platelet aggregation was assessed on a two-channel laser analyzer “BIOLA-220 LA” (Russia) as described previously using rabbit platelets.

[9] = tested on: C57bl/6j peritoneal macrophages; experiment: Macrophage phagocytosis assay; assay type: cell-based, mice; settings: for Macrophage spreading (visually scored): yeast-treated macrophages, 72 h
Procedure: The phagocytic activity of peritoneal macrophages was assessed after staining with Azur-Eosin with Romanovsky’s modifications as reported by us previously with a light microscopy using a Mikmed-6 (LOMO, Saint Petersburg, Russia) equipped with a digital camera.
as §5
(Figure 3). The mean number of phagocytosed particles per cell was […]. […] Macrophage spreading was registered and visually scored as a phenotypic marker of cell activation phagocytic capacity.

[10] = tested on: LPS-stimulated C57bl/6j peritoneal macrophages; experiment: LPS-induced IL-6 secretion in primary peritoneal macrophages (ELISA); assay type: cell-based, mice; settings: Mus musculus, Peritoneal macrophage; LPS 100 ng/mL; n = 3; read-out: IL-6 Secretion IC50 ± SE
Procedure: as §1, §2, §3

[11] = 4a 50 mg/kg (30 mg/kg in source) i.p.
[12] = 4a 50 mg/kg (30 mg/kg in source) i.p., 24 h after LPS
[13] = dexamethasone 5 mg/kg i.p., 24 h after LPS

Structure (SMILES)	IC50 [2] [µM]	inhibition at 0.01 µM ([4]; rabbit platelets) [%]	CC50 [5] [µM]	melting point [°C]	Max IOP Reduction [7] [%]	inhibition at 100 µM [8] [%]	IC50 [10] [µM]	also measured
Nc1nnc(Cn2c(=O)c3ccccc3n(Cc3nnc(N)[nH]3)c2=O)[nH]1 [Compound 4a, 1,3-Bis[(5-amino-4H-1,2,4-triazol-3-yl)methyl]quinazoline-2,4(1H,3H)-dione]	73 ± 7.83	29.4 ± 4.4	> 100	314 to 318	28.25 ± 7.92	39.3 ± 11.9	51.8 ± 1.65	Immobilization Time ([1]; 4.0 mg/kg): 164.4 ± 23.19 s; Exploratory activity, open field test [3, 11]: comparably improved exploratory activity; Motor activity, open field test [3, 11]: restored the motor activity of animals; CD68+ macrophage accumulation in lung tissue (immunostaining) [3, 12]: effectively limited LPS-induced inflammation; Lung tissue histology (hematoxylin and eosin) [3, 12]: reduced LPS-induced inflammation in mouse lung tissue; Plasma IL-6 [3, 12]: significantly reduced plasma IL-6; Pulmonary (alveolar) vessel permeability [3, 12]: preserved pulmonary vessels’ permeability; Segmented neutrophils in BAL [3, 12]: significantly ameliorated the accumulation of segmented neutrophils; also recorded: most pronounced inhibition of the neutrophil migration; IC50 ([4]; rabbit platelets): 0.324 µM; NHE-1 potency relative to amiloride ([4]; ratio of IC50 vs amiloride): exceeding amiloride by four times; Cell viability (LDH assay) [6]: slightly decreased; Decrease of the mean number of phagocytosed particles ([9]; 72 h of incubation): 23%; Phagocytic activity ([9]; 72 h of incubation): insignificantly influenced; Macrophage spreading (visually scored) [9]: marginally reduced spreading
N=C(N)NC(=O)Cn1c(=O)c2cc(Br)ccc2n(CC(=O)NC(=N)N)c1=O [Compound 3b, 2,2’-(6-Bromo-2,4-dioxoquinazoline-1,3(2H,4H)-diyl)bis(N-carbamimidoylacetamide)]	> 100	10.2 ± 3.72	> 100	> 400	24.17 ± 5.05	46.4 ± 9.2	> 100	–
CC(=O)Oc1ccccc1C(=O)O [Acetylsalicylic acid, acetylsalicylic acid, reference compound]	–	–	–	–	–	31.6 ± 4.6	–	–
Nc1nnc(Cn2c(=O)c3cc(Br)ccc3n(Cc3nnc(N)[nH]3)c2=O)[nH]1 [Compound 4b, 1,3-Bis[(5-amino-4H-1,2,4-triazol-3-yl)methyl]-6-bromoquinazoline-2,4(1H,3H)-dione]	71 ± 4.89	16.2 ± 3.75	> 100	> 400	15.45 ± 9.39	47.4 ± 8.9	64.8 ± 4.31	Immobilization Time ([1]; 4.9 mg/kg): 168.2 ± 19.52 s; IOP-lowering activity reduction relative to 4a [7]: 2 fold
C[C@@H]1C[C@H]2[C@@H]3CCC4=CC(=O)C=C[C@]4(C)[C@@]3(F)[C@@H](O)C[C@]2(C)[C@@]1(O)C(=O)CO [Dexamethasone, dexamethasone, reference compound]	0.003 ± 0.001	–	> 100	–	–	–	0.003 ± 0.001	Exploratory activity, open field test ([3]; dexamethasone 5 mg/kg i.p.): comparably improved exploratory activity; Motor activity, open field test ([3]; dexamethasone 5 mg/kg i.p.): reduced the LPS-induced motor and behavioral alterations; CD68+ macrophage accumulation in lung tissue (immunostaining) [3, 13]: significantly reduced this phenomenon; Plasma IL-6 [3, 13]: significantly reduced plasma IL-6; Segmented neutrophils in BAL [3, 13]: significantly ameliorated the accumulation of segmented neutrophils; Cell viability (LDH assay) [6]: did not influence cell viability; Mean number of phagocytosed particles per cell ([9]; 72 h of incubation): 59%; Phagocytic activity ([9]; 72 h of incubation): 41 % from control; Macrophage spreading (visually scored) [9]: more evident
N=C(N)NC(=O)c1nc(Cl)c(N)nc1N [Amiloride, amiloride, reference compound]	0.62 ± 0.05	5.39 ± 1.82	> 100	–	18.39 ± 14.58	67.6 ± 1	–	Immobilization Time ([1]; 2.6 mg/kg): 172.7 ± 8.54 s; IC50 ([4]; rabbit platelets): 1.23 µM
N=C(N)NC(=O)Cn1c(=O)c2ccccc2n(CC(=O)NC(=N)N)c1=O [Compound 3a, 2,2’-(2,4-Dioxoquinazoline-1,3(2H,4H)-diyl)bis(N-carbamimidoylacetamide)]	> 100	37.2 ± 5.97	> 100	336 to 338	10.08 ± 5.8	44.3 ± 14.3	> 100	NHE-1 IC50 ([4]; rabbit platelets): nanomolar range; IOP-lowering activity reduction relative to 4a [7]: 3 fold
CN(C)CCCN1c2ccccc2CCc2ccccc21 [Imipramine, imipramine]	–	–	–	–	–	–	–	Immobilization Time ([1]; 8 mg/kg): 112.5 ± 20.56 s
N=C(N)NC(=O)c1cnn(-c2cccc3ncccc23)c1C1CC1 [Zoniporide, zoniporide, reference compound]	–	–	407 ± 27.6	–	–	–	> 100	EC50 ([2]; printed as EC50 in the IC50 column, read-out: NO Synthesis EC50 ± SE): 15.6 µM
CN(C)CCC=C1c2ccccc2CCc2ccccc21 [Amitriptyline, amitriptyline]	–	–	–	–	–	–	–	Immobilization Time ([1]; 10 mg/kg): 50.2 ± 12.71 s
